Laboratory results from US20080102497A1, “ENZYMATIC HYDROLYSIS OF STARCH” (priority 2006, published 2008).
Several values for one entry are separate records, joined by “and”; a condition that tells them apart may be missing. Equal values may be shown once. Read-outs that look alike come from different tables or passages of the source.

What was measured:
[1] = test system: glucoamylase from Rhizopus sp.; assay: effect of pre-incubation of Mn^++ with enzyme or starch on raw corn starch conversion; assay type: biochemical; details: for % conversion of the starch substrate: reaction 37° C., pH 5.3
Experimental: The glucoamylase from Rhizopus sp. Or raw corn starch substrate were pre-incubated in a sodium acetate buffer, pH 5.3, with 1.0 mM Mn^++ for 0, 20, 40, or 60 min at 22° C. The enzyme pre-incubation solutions were then combined with 15 mg raw corn starch to provide a reaction mixture that was incubated at 37° C. for 5 minutes. The starch pre-incubation solutions were combined with an enzyme solution containing the glucoamylase from Rhizopus sp and buffer to provide a reaction mixture that was incubated at 37° C. for 5 minutes or 10 minutes.

[2] = target: T1, β-amylase from sweet potato (Ipomoea batatas, UniProt P10537); assay: hydrolysis of raw corn starch or soluble starch; assay type: biochemical; details: for % Relative Activity: pH 5.3, 37° C., 20 min
T1 construct: purchased Sigma A-7005
T1 sequence (P10537 whole entry): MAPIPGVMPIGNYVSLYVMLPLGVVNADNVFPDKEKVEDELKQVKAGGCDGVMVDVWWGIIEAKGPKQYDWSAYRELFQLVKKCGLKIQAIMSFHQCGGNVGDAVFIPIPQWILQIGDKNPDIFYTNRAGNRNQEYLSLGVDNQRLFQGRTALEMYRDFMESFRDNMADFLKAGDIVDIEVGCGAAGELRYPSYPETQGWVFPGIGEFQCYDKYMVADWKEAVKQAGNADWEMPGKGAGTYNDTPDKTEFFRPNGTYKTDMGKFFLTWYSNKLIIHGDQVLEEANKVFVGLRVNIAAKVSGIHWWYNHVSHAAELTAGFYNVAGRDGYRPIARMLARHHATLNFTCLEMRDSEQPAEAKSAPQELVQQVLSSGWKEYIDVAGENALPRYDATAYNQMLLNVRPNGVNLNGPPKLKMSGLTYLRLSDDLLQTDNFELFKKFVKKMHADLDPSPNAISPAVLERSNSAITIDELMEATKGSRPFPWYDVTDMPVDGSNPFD
Experimental: Each of the buffered enzyme solutions was separately added to 15 mg raw corn starch or 0.6 mg soluble starch, and the reaction mixtures incubated at 37° C. for 20 minutes. The control reaction mixture contained substrate, enzyme, and buffer but no manganese ion. The starch hydrolysis reaction was stopped by combining the reaction mixture with a solution containing DNSA and heating for 30 min at 85° C. The absorbance of the control and test samples was measured at 562 nm to monitor the amount of reducing sugar in each sample.

[3] = target: glucoamylase from Aspergillus Niger (Aspergillus niger, UniProt P69328); details: pH 5.2, 37° C., 10 min
Sequence of glucoamylase from Aspergillus Niger (P69328 25-640): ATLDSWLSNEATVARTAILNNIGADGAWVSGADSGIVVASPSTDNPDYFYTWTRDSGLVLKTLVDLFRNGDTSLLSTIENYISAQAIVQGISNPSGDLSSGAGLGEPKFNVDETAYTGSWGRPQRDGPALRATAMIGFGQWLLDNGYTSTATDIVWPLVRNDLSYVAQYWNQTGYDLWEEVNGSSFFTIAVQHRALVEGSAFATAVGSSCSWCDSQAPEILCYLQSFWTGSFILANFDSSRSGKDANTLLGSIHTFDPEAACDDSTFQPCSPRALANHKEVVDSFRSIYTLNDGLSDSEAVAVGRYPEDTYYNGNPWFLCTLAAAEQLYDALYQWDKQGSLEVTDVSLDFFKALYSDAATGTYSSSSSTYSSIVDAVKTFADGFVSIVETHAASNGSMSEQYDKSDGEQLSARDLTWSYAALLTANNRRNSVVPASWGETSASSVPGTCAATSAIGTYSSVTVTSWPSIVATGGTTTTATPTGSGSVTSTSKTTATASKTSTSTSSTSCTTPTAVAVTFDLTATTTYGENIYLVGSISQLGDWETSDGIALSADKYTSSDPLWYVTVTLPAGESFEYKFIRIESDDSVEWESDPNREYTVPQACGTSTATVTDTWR
Experimental: (§1) The control reaction mixture contained enzyme, buffer, and starch but no manganese ion. The starch hydrolysis reaction was stopped by combining the reaction mixture with a solution containing DNSA and heating for 30 min at 85° C. The absorbance of the control and test samples was measured at 562 nm to monitor the amount of reducing sugar in each sample.

[4] = target: T2, α-amylase from Bacillus licheniformis (Bacillus licheniformis, UniProt P06278); assay: hydrolysis of cooked corn starch varieties; assay type: biochemical; details: pH 5.2, 37° C., 10 min
T2 sequence (P06278 30-512): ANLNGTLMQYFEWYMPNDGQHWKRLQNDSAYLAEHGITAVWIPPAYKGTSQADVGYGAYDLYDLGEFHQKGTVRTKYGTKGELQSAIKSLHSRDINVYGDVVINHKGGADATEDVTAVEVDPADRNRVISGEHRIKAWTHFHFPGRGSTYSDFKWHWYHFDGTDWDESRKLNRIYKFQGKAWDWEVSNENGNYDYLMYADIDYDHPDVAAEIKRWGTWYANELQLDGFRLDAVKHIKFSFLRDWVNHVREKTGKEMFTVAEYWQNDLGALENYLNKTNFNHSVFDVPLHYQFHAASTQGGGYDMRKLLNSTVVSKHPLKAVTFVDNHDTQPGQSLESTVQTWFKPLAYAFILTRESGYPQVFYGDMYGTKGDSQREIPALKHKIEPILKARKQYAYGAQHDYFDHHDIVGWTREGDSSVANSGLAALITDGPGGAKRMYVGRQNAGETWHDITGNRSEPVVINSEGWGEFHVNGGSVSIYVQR
Experimental: The separate reaction mixtures were incubated at 37° C. for 10 minutes. The control reaction mixture contained enzyme, buffer, and starch but no manganese ion. The starch hydrolysis reaction was stopped by combining the reaction mixture with a solution containing DNSA and heating for 30 min at 85° C. The absorbance of the control and test samples was measured at 562 nm to monitor the amount of reducing sugar in each sample.

β-amylase from barley [5] = target: T3, β-amylase from barley (Hordeum vulgare, UniProt P16098); assay: hydrolysis of cooked corn starch varieties; assay type: biochemical; details: pH 5.2, 37° C., 10 min
T3 sequence (P16098 whole entry): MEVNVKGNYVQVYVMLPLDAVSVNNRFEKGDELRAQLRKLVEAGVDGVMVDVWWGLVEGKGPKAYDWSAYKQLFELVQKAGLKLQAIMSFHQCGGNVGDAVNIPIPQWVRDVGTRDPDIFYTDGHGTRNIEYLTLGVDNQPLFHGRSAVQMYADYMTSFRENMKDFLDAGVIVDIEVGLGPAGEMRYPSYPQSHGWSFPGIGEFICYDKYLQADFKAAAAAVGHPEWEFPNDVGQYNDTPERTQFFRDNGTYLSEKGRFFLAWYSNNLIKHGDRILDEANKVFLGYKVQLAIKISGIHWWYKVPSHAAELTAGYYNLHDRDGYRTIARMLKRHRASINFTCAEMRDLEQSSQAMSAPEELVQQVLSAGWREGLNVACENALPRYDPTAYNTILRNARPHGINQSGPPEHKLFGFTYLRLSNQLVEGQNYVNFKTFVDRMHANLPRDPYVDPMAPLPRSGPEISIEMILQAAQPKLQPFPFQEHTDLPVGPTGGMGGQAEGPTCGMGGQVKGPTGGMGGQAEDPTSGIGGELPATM
Experimental: as §1, with “The separate reaction mixtures were incubated at 37° C. for 10 minutes. The control” for “The control”

[6] = target: T2, α-amylase from Bacillus licheniformis; assay: hydrolysis of cooked dent corn starch; assay type: biochemical; details: cooked dent corn starch 0.5%, pH 5.2, 37° C., 10 min
Experimental: (§2) The separate reaction mixtures were incubated at 37° C. for 10 minutes. The control reaction mixtures contained enzyme, buffer, and starch but no manganese ion. The starch hydrolysis reaction was stopped by combining the reaction mixture with a solution containing DNSA and heating for 30 min at 85° C. The absorbance of the control and test samples was measured at 562 nm to monitor the amount of reducing sugar in each sample.

[7] = test system: α-amylase from Bacillus subtilis; assay: hydrolysis of cooked dent corn starch; assay type: biochemical; details: 0.01 mM Mn^++; cooked dent corn starch 0.5%; pH 5.2; 37° C., 10 min
Experimental: as §2

[8] = target: T4, industrial α-amylase known as Termamyl (Bacillus licheniformis, UniProt P06278); assay: hydrolysis of cooked dent corn starch; assay type: biochemical; details: cooked dent corn starch 0.5%, pH 5.2, 37° C., 10 min
T4 construct: purchased Novozymes
T4 sequence (P06278 30-512): as the sequence (P06278 30-512) above
Experimental: as §2

β-amylase from barley [9] = target: T3, β-amylase from barley; assay: hydrolysis of cooked dent corn starch; assay type: biochemical; details: cooked dent corn starch 0.5%, pH 5.2, 37° C., 10 min
Experimental: as §2

[10] = target: T1, β-amylase from sweet potato; assay: hydrolysis of cooked dent corn starch; assay type: biochemical; details: cooked dent corn starch 0.5%, pH 5.2, 37° C., 10 min
Experimental: as §2

[11] = test system: glucoamylase from Rhizopus sp.; assay: hydrolysis of cooked dent corn starch; assay type: biochemical; details: cooked dent corn starch 0.5%, pH 5.2, 37° C., 10 min
Experimental: as §2

[12] = test system: enzyme mixture of purified glucoamylase from mushroom and purified α-amylase from barley; assay: hydrolysis of raw corn starch by enzyme mixture, reducing sugar by DNSA; assay type: biochemical; details: pH 5.3, 37° C., 20 min
[13] = 0.01 mM Mn^++, cooked high-amylose V corn starch 0.5%
[14] = 0.01 mM Mn^++, cooked soluble corn starch 0.5%
[15] = 0.01 mM Mn^++, cooked waxy corn starch 0.5%
[16] = 0.1 mM Mn^++, cooked dent corn starch 0.5%
[17] = 0.1 mM Mn^++, cooked high-amylose V corn starch 0.5%
[18] = 0.1 mM Mn^++, cooked soluble corn starch 0.5%
[19] = 0.1 mM Mn^++, cooked waxy corn starch 0.5%
[20] = 1 mM Mn^++, cooked dent corn starch 0.5%
[21] = 1 mM Mn^++, cooked soluble corn starch 0.5%
[22] = 10 mM Mn^++, cooked dent corn starch 0.5%
[23] = 10 mM Mn^++, cooked high-amylose V corn starch 0.5%
[24] = 10 mM Mn^++, cooked soluble corn starch 0.5%
[25] = 10 mM Mn^++, cooked waxy corn starch 0.5%

Compound: [Mn+2] [Mn^++, manganese ions]
- % conversion of the starch substrate ([1]; 1.0 mM Mn^++ pre-incubated with glucoamylase 0 min at 22° C., 5 min, raw corn starch): 0.42%
- % conversion of the starch substrate ([1]; 1.0 mM Mn^++ pre-incubated with glucoamylase 20 min at 22° C., 5 min, raw corn starch): 0.35%
- % conversion of the starch substrate ([1]; 1.0 mM Mn^++ pre-incubated with glucoamylase 40 min at 22° C., 5 min, raw corn starch): 0.38%
- % conversion of the starch substrate ([1]; 1.0 mM Mn^++ pre-incubated with glucoamylase 60 min at 22° C., 5 min, raw corn starch): 0.38%
- % conversion of the starch substrate ([1]; 1.0 mM Mn^++ pre-incubated with raw corn starch 0 min at 22° C., 5 min): 0.51%
- % conversion of the starch substrate ([1]; 1.0 mM Mn^++ pre-incubated with raw corn starch 0 min at 22° C., 10 min): 0.73%
- % conversion of the starch substrate ([1]; 1.0 mM Mn^++ pre-incubated with raw corn starch 20 min at 22° C., 5 min): 0.48%
- % conversion of the starch substrate ([1]; 1.0 mM Mn^++ pre-incubated with raw corn starch 20 min at 22° C., 10 min): 0.79%
- % conversion of the starch substrate ([1]; 1.0 mM Mn^++ pre-incubated with raw corn starch 40 min at 22° C., 5 min): 0.50%
- % conversion of the starch substrate ([1]; 1.0 mM Mn^++ pre-incubated with raw corn starch 40 min at 22° C., 10 min): 0.81%
- % conversion of the starch substrate ([1]; 1.0 mM Mn^++ pre-incubated with raw corn starch 60 min at 22° C., 5 min): 0.58%
- % conversion of the starch substrate ([1]; 1.0 mM Mn^++ pre-incubated with raw corn starch 60 min at 22° C., 10 min): 0.80%
- effect of pre-incubation on activation by Mn^++ (in words) ([1]; pre-incubation of Mn^++ with enzyme or with starch, 0-60 min): does not significantly influence the activation effect
- % Relative Activity ([2]; 0.01 mM Mn^++, raw corn starch): 113.9%
- % Relative Activity ([2]; 0.01 mM Mn^++, soluble starch): 108.6%
- % Relative Activity ([2]; 0.1 mM Mn^++, raw corn starch): 106.6%
- % Relative Activity ([2]; 0.1 mM Mn^++, soluble starch): 127.1%
- % Relative Activity ([2]; 1 mM Mn^++, raw corn starch): 136.5%
- % Relative Activity ([2]; 1 mM Mn^++, soluble starch): 146.6%
- % Relative Activity ([2]; 10 mM Mn^++, raw corn starch): 160.6%
- % Relative Activity ([2]; 10 mM Mn^++, soluble starch): 176.3%
- effect on hydrolysis of starch (in words) ([2]; raw corn starch and soluble starch): enhances the hydrolysis of both raw corn starch and soluble starch
- Relative Activity ([3]; 0.01 mM Mn^++, cooked barley starch 0.5%): 111.1%
- Relative Activity ([3]; 0.01 mM Mn^++, cooked pea starch 0.5%): 121.1%
- Relative Activity ([3]; 0.01 mM Mn^++, cooked potato starch 0.5%): 112.0%
- Relative Activity ([3]; 0.01 mM Mn^++, cooked rice starch 0.5%): 109.3%
- Relative Activity ([3]; 0.01 mM Mn^++, cooked soluble potato starch 0.5%): 104.0% and 115.7%
- Relative Activity ([3]; 0.01 mM Mn^++, cooked tapioca starch 0.5%): 109.5%
- Relative Activity ([3]; 0.01 mM Mn^++, cooked wheat starch 0.5%): 111.9%
- Relative Activity ([3]; 0.1 mM Mn^++, cooked barley starch 0.5%): 117.5%
- Relative Activity ([3]; 0.1 mM Mn^++, cooked pea starch 0.5%): 124.0%
- Relative Activity ([3]; 0.1 mM Mn^++, cooked potato starch 0.5%): 118.8%
- Relative Activity ([3]; 0.1 mM Mn^++, cooked rice starch 0.5%): 129.3%
- Relative Activity ([3]; 0.1 mM Mn^++, cooked soluble potato starch 0.5%): 121.0% and 130.1%
- Relative Activity ([3]; 0.1 mM Mn^++, cooked tapioca starch 0.5%): 126.0%
- Relative Activity ([3]; 0.1 mM Mn^++, cooked wheat starch 0.5%): 122.2%
- Relative Activity ([3]; 1 mM Mn^++, cooked barley starch 0.5%): 120.4%
- Relative Activity ([3]; 1 mM Mn^++, cooked pea starch 0.5%): 138.0%
- Relative Activity ([3]; 1 mM Mn^++, cooked potato starch 0.5%): 138.5%
- Relative Activity ([3]; 1 mM Mn^++, cooked rice starch 0.5%): 144.0%
- Relative Activity ([3]; 1 mM Mn^++, cooked soluble potato starch 0.5%): 140.0% and 79.9%
- Relative Activity ([3]; 1 mM Mn^++, cooked tapioca starch 0.5%): 135.7%
- Relative Activity ([3]; 1 mM Mn^++, cooked wheat starch 0.5%): 142.5%
- Relative Activity ([3]; 10 mM Mn^++, cooked barley starch 0.5%): 172.6%
- Relative Activity ([3]; 10 mM Mn^++, cooked pea starch 0.5%): 179.8%
- Relative Activity ([3]; 10 mM Mn^++, cooked potato starch 0.5%): 200.0%
- Relative Activity ([3]; 10 mM Mn^++, cooked rice starch 0.5%): 209.2%
- Relative Activity ([3]; 10 mM Mn^++, cooked tapioca starch 0.5%): 183.8%
- Relative Activity ([3]; 10 mM Mn^++, cooked wheat starch 0.5%): 185.4%
- Relative Activity [4, 13]: 116.5%
- Relative Activity [4, 14]: 118.3%
- Relative Activity [4, 15]: 118.3%
- Relative Activity [4, 16]: 124.4%
- Relative Activity [4, 17]: 135.5%
- Relative Activity [4, 18]: 128.1%
- Relative Activity [4, 19]: 126.9%
- Relative Activity [4, 20]: 128.7%
- Relative Activity [4, 21]: 135.8%
- Relative Activity [4, 22]: 147.8%
- Relative Activity [4, 23]: 160.1%
- Relative Activity [4, 24]: 162.7%
- Relative Activity [4, 25]: 155.8%
- Relative Activity (β-amylase from barley [5]; 0.01 mM Mn^++, cooked dent corn starch 0.5%): 123.5%
- Relative Activity (β-amylase from barley [5]; [13]): 111.2%
- Relative Activity (β-amylase from barley [5]; [14]): 138.7%
- Relative Activity (β-amylase from barley [5]; [15]): 114.2%
- Relative Activity (β-amylase from barley [5]; [16]): 135.3%
- Relative Activity (β-amylase from barley [5]; [17]): 123.3%
- Relative Activity (β-amylase from barley [5]; [18]): 135.7%
- Relative Activity (β-amylase from barley [5]; [19]): 129.9%
- Relative Activity (β-amylase from barley [5]; [20]): 149.8%
- Relative Activity (β-amylase from barley [5]; 1 mM Mn^++, cooked high-amylose V corn starch 0.5%): 136.3%
- Relative Activity (β-amylase from barley [5]; [21]): 174.8%
- Relative Activity (β-amylase from barley [5]; 1 mM Mn^++, cooked waxy corn starch 0.5%): 148.3%
- Relative Activity (β-amylase from barley [5]; [22]): 210.1%
- Relative Activity (β-amylase from barley [5]; [23]): 184.5%
- Relative Activity (β-amylase from barley [5]; [24]): 199.6%
- Relative Activity (β-amylase from barley [5]; [25]): 237.4%
- Relative Activity ([6]; 0.1 mM Mn^++): 124.4%
- Relative Activity ([6]; 1 mM Mn^++): 128.7%
- Relative Activity ([6]; 10 mM Mn^++): 147.8%
- Relative Activity [7]: 113.0% and 119.5%
- Relative Activity ([8]; 0.01 mM Mn^++): 114.7%
- Relative Activity ([8]; 10 mM Mn^++): 156.3%
- Relative Activity (β-amylase from barley [9]; 0.01 mM Mn^++): 123.5%
- Relative Activity (β-amylase from barley [9]; 0.1 mM Mn^++): 135.3%
- Relative Activity (β-amylase from barley [9]; 1 mM Mn^++): 149.8%
- Relative Activity (β-amylase from barley [9]; 10 mM Mn^++): 210.1%
- Relative Activity ([10]; 0.01 mM Mn^++): 117.6%
- Relative Activity ([10]; 0.1 mM Mn^++): 131.4%
- Relative Activity ([10]; 1 mM Mn^++): 148.0%
- Relative Activity ([10]; 10 mM Mn^++): 215.0%
- Relative Activity ([11]; 0.01 mM Mn^++): 112.0%
- Relative Activity ([11]; 0.1 mM Mn^++): 123.8%
- Relative Activity ([11]; 1 mM Mn^++): 145.1%
- Relative Activity ([11]; 10 mM Mn^++): 223.5%
- Relative Activity ([12]; 0.01 mM Mn^++): 106.7%
- Relative Activity ([12]; 0.1 mM Mn^++): 124.7%
- Relative Activity ([12]; 1 mM Mn^++): 142.6%
- Relative Activity ([12]; 10 mM Mn^++): 143.5%
